Measured values: patent US7902373B2 (Pfizer Inc, priority 2006, dated 2011)

Molecular target: human recombinant H-PGDS (Homo sapiens, UniProt O60760)
Test: Fluorescence intensity h-PGDS TBA enzyme assay
Assay type: biochemical
Conditions: Examples up to 622 (and 3a, 3b)

Sequence of human recombinant H-PGDS (O60760 whole entry): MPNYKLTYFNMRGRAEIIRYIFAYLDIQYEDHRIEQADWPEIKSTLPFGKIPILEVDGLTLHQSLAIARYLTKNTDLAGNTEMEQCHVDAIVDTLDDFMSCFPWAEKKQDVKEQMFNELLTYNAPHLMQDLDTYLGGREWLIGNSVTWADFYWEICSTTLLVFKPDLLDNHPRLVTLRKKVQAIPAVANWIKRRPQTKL

Row | Compound | IC50 [nM]
1 | Cn1nccc1-c1nc(CN2CCC(NC(=O)c3ccc(-c4cccc(F)c4)nc3)CC2)nn1C [Example 480, 6-(3-Fluorophenyl)-N-(1-{[1-methyl-5-(1-methyl-1H-pyrazol-5-yl)-1H-1,2,4-triazol-3-yl]methyl}piperidin-4-yl)nicotinamide] | 2.69
2 | Cn1nc(-c2ncccn2)nc1CN1CCC(NC(=O)c2ccc(-c3cccc(F)c3)nc2)CC1 [Example 481, 6-(3-Fluorophenyl)-N-{1-[(1-methyl-3-pyrimidin-2-yl-1H-1,2,4-triazol-5-yl)methyl]piperidin-4-yl}nicotinamide] | 2.45
3 | Cn1nc(CN2CCC(NC(=O)c3ccc(-c4cccc(F)c4)nc3)CC2)nc1-c1ccccc1F [Example 482, 6-(3-Fluorophenyl)-N-(1-{[5-(2-fluorophenyl)-1-methyl-1H-1,2,4-triazol-3-yl]methyl}piperidin-4-yl)nicotinamide] | 2.39
4 | Cn1nc(-c2cccc(F)c2)nc1CN1CCC(NC(=O)c2ccc(-c3cccc(F)c3)nc2)CC1 [Example 483, 6-(3-Fluorophenyl)-N-(1-{[3-(3-fluorophenyl)-1-methyl-1H-1,2,4-triazol-5-yl]methyl}piperidin-4-yl)nicotinamide] | 3.58
5 | Cn1nc(CN2CCC(NC(=O)c3ccc(-c4cccc(F)c4)nc3)CC2)nc1-c1ccc(F)cc1 [Example 484, 6-(3-Fluorophenyl)-N-(1-{[5-(4-fluorophenyl)-1-methyl-1H-1,2,4-triazol-3-yl]methyl}piperidin-4-yl)nicotinamide] | 2.68
6 | Cn1nc(CN2CCC(NC(=O)c3ccc(-c4cccc(F)c4)nc3)CC2)nc1-c1ccccn1 [Example 485, 6-(3-Fluorophenyl)-N-{1-[(1-methyl-5-pyridin-2-yl-1H-1,2,4-triazol-3-yl)methyl]piperidin-4-yl}nicotinamide] | 2.77
7 | O=C(NC1CCN(Cc2ccc(OC(F)F)c(OC3CC3)c2)CC1)c1ccc(-c2cccc(F)c2)nc1 [Example 486, N-{1-[3-(Cyclopropyloxy)-4-(difluoromethoxy)benzyl]piperidin-4-yl}-6-(3-fluorophenyl)nicotinamide] | 2.32
8 | Nc1ncncc1CN1CCC(NC(=O)c2ccc(-c3cccc(F)c3)nc2)CC1 [Example 489, N-{1-[(4-Aminopyrimidin-5-yl)methyl]piperidin-4-yl}-6-(3-fluorophenyl)nicotinamide] | 1.18
9 | COc1ccc2nccc(CN3CCC(NC(=O)c4ccc(-c5cccc(F)c5)nc4)CC3)c2n1 [Example 491, 6-(3-Fluorophenyl)-N-{1-[(6-methoxy-1,5-naphthyridin-4-yl)methyl]piperidin-4-yl}nicotinamide] | 2.4
10 | O=C(NC1CCN(Cc2ccc(-n3nccn3)cc2)CC1)c1ccc(-c2cccc(F)c2)nc1 [Example 493, 6-(3-Fluorophenyl)-N-{1-[4-(2H-1,2,3-triazol-2-yl)benzyl]piperidin-4-yl}nicotinamide] | 1.1

Now those with a lower IC50, led by results:

Row | IC50 [nM] | Compound
11 | 0.372 | COc1c(C)cnc(CN2CCC(NC(=O)c3ccc(-c4cccc(F)c4)nc3)CC2)c1C [Example 487]
12 | 0.489 | O=C(NC1CCN(Cc2ccc(-c3ccn[nH]3)cc2)CC1)c1ccc(-c2cccc(F)c2)nc1 [Example 488, 6-(3-Fluorophenyl)-N-{1-[4-(1H-pyrazol-5-yl)benzyl]piperidin-4-yl}nicotinamide]
13 | 0.601 | O=C(NC1CCN(Cc2cccc3c2OCC3)CC1)c1ccc(-c2cccc(F)c2)nc1 [Example 490, N-[1-(2,3-Dihydro-1-benzofuran-7-ylmethyl)piperidin-4-yl]-6-(3-fluorophenyl)nicotinamide]
14 | 0.285 | O=C(NC1CCN(Cc2ccc(-n3ccnn3)cc2)CC1)c1ccc(-c2cccc(F)c2)nc1 [Example 492, 6-(3-Fluorophenyl)-N-{1-[4-(1H-1,2,3-triazol-1-yl)benzyl]piperidin-4-yl}nicotinamide]
15 | 0.817 | COc1cc(CN2CCC(NC(=O)c3ccc(-c4cccc(F)c4)nc3)CC2)cc2c1OCCO2 [Example 494, 6-(3-Fluorophenyl)-N-{1-[(8-methoxy-2,3-dihydro-1,4-benzodioxin-6-yl)methyl]piperidin-4-yl}nicotinamide]
